“Also recorded” adds a separate entry of the source.
Assays:
Format in all cases: cell-based, human
[1] = tested on: washed platelets (WP); experiment: Collagen-induced platelet aggregation in washed platelets (light aggregometry); set-up: IC50: unit of the concentration uncertain; conditions: for IC50: inhibition of platelet aggregation in response to collagen (5 (unit uncertain)), washed platelets; for effect of eserine on inhibition of collagen-induced aggregation in WP: physostigmine (eserine) 10 μM
Experimental: (§1) PRP and WP (2.5×10^8 platelets ml^−1) were prepared from blood. Briefly 36 ml whole blood was collected into 4 ml of 3.15% sodium citrate; this was centrifuged at 250 ¥g for 20 min (with gentle acceleration and deceleration). At this point PRP, which had separated from white blood cells and red blood cells, was gently removed. When WP were required this PRP was centrifuged at 700 g for 10 min (with gentle acceleration and deceleration) in the presence of prostacyclin. The platelet-poor plasma (PPP) was removed and the platelet pellet was washed three times with Tyrode's buffer, before being re-suspended in Tyrode's buffer to a concentration of 2.5 ¥108 platelets/ml.
(§2) Platelet aggregation was measured by light aggregometry. […] Aggregation was initiated by the addition of agonists, and monitored by Aggro-Link software for at least 6 min.
(§3) To study the aggregatory potency of ADP, the concentration-response (0.3-10 μM) curves were generated. Collagen at different concentrations (2-5 μg/ml) was also used to induce platelet aggregation. Submaximal concentrations of agonists, i.e. the concentrations that gave approximately 95% of the maximal aggregation were used to study the effects of inhibitors of aggregation. Aspirin and aspirin prodrugs was incubated for various intervals prior to the addition of aggregating agents.
To study the involvement of plasma BuChE in the activation of ST0701, purified BuChE (3 U/ml) was incubated with WP for 5 min in the aggregometer with stirring at 900 r.p.m. before the addition of the test compounds ST0701 which was incubated with the WP for a further 10 min, prior to the addition of collagen (5 ug/ml).
(§4) Eserine (in DMSO, 10 μM, giving a final concentration≦0.25% DMSO, which pilot studies had determined not to affect platelet aggregation) was preincubated with PRP or WP for 5 min in the aggregometer with stirring at 900 r.p.m. before the addition of test compounds (ST0701-05), which were incubated in PRP or WP for a further 10 min prior to the addition of an agonist (10 μM ADP or 5 μg/ml Collagen) to induce platelet aggregation.
Phenylmethylsulphonylfluoride (PMSF) 20, 50 and 100 μM dissolved in EtOH (<0.2% EtOH, which pilot studies had determined not to affect platelet aggregation) was preincubated in WP in the aggregometer for 5 min with stirring at 900 r.p.m. before the addition of test compound ST0702 to the WP, which was further incubated for 10 min prior to the addition of collagen (2 μg/ml) to induce platelet aggregation.

[2] = tested on: platelet rich plasma (PRP); experiment: Collagen-induced platelet aggregation in platelet rich plasma (light aggregometry)
Experimental: as §1, §2, §3, §4

[3] = tested on: platelet rich plasma (PRP); experiment: ADP-induced platelet aggregation in PRP; conditions: ADP 10 μM, PRP; for effect of ODQ pretreatment on inhibition of ADP induced aggregation: ODQ 10 μM, compounds 100 μM
Experimental: as §1, §2, §3, §4
1H-[1,2,4]Oxadiazolo[4,3-a]quinoxalin-1-one (ODQ, dissolved in 100% DMSO, used at a final concentration of 10 μM, which gave a final concentration not more than 0.25% DMSO) was preincubated with PRP or WP for 5 min in the aggregometer with stirring at 900 r.p.m. before the addition of test compounds (ST0701-05), which were incubated in PRP or WP for a further 10 min prior to the addition of an agonist (10 μM ADP or 5 μg/ml collagen) to induce platelet aggregation.
Eserine (10 μM) was incubated with PRP for 5 min in the aggregometer with stirring at 900 r.p.m. before the addition of test compound ST0702 salicylate (500 μM), which was incubated in PRP for a further 10 min prior to the addition of the agonist ADP (10 μM) to induce platelet aggregation.

[4] = tested on: HT1080 cells; experiment: Tumour cell-induced platelet aggregation (TCIPA), static conditions, HT1080; conditions: static, WP, 300 and 500 μM, HT1080 2×10^5/ml
Experimental: Three human tumor cell lines, 59M ovarian adenocarcinoma, Caco-2 colon adenocarcinoma and HT1080 fibrocarcinoma cells, were obtained from the European Cell Culture Collection. Cell lines were cultured as monolayers in 75 ml culture flasks at 37° C. in a humidified atmosphere with 5% CO2. 59M cells and HT1080 were cultured in Dulbecco's […] (DMEM) supplemented with 10% fetal bovine serum (FBS) and gentamycin (0.05 mg/ml), penicillin (0.06 mg/ml), and streptomycin (0.01 mg/ml). Caco-2 cell line was cultured in Minimum Essential Medium (MEM) supplemented with 20% FBS and the same antibiotics as above. The cells were supplied with fresh medium and subcultured three times each week.
Washed platelet suspensions (2.5×10^11 platelets 1^−1) were prepared from blood an mixed with the anticoagulant sodium citrate (0.315% final concentration).
The interactions between platelets and tumor cells were measured by light aggregometry (Alonso-Escolano et al., 2004; Jurasz et al., 2001b; Radomski et al., 1991). Briefly, washed platelet samples (2.5×10^8/ml) were placed in an eight channel PAP 8 aggregometer (BIO/DATA CORPORATION, Horsham, Pa., U.S.A.) and incubated for 10 min at 37° C., with stirring at 900 r.p.m., prior to the addition of aggregating agents. […] TCIPA was initiated by the addition of cancer cells, and monitored by Aggro-Link software for at least 30 min. For experiments using inhibitors, aggregation was initiated after 10 min preincubation with these compounds.
To study the ability of the aspirin pro-drugs to inhibit TCIPA in WP cancer cell lines such as HT1080 cells (2×10^5/ml), CaCo2 cells (1.5×10^3/ml) or 59M cells (1×10^3/ml) were used in the presence or absence of aspirin nicotinate (ST0702), ISAS, orthonitrate and metanitrate at 300 and 500 μM. Platelet aggregation was initiated in washed platelets (WP) using HT1080 cells (2×10^5/ml), CaCo2 cells (1.5×10^3/ml) or 59M cells (1×10^3/ml). In addition, regular aspirin (300 and 500 uM) was used as control. Results were expressed in percent changes in maximal light transmission, with 100% representing light transmission of platelet medium alone. ST0702 is hydrolyzed by plasma esterases along two pathways liberating both aspirin and 5-nicotinate salicylate (ST0702 salicylate)(metabolite). The latter is further processed to isosorbide-5-nicotinate and eventually to nicotinic acid. The orthonitrate and metanitrate compounds liberate aspirin and nitric oxide (NO). ISAS meanwhile is hydrolysed to aspirin and salicylic acid. Aspirin (300 and 500 μM) was used in control experiments. Results were expressed in percent changes in maximal light transmission, with 100% representing light transmission of platelet medium alone. Further experiments were performed with ST0702 salicylate (500 μM).

[5] = tested on: P-selectin; experiment: Flow cytometry of platelet P-selectin during TCIPA induced by 59M cells; conditions: 300 μM
[6] = 200 μM in PRP, collagen 5 μg/ml

SMILES: CC(=O)Oc1ccccc1C(=O)O [Aspirin]
- IC50 ([1]; Homo sapiens, Platelet): 35 µM
- IC50 [1]: 34 µM
- effect of eserine on inhibition of collagen-induced aggregation in WP [1]: did not affect the inhibitory actions
- effect of eserine on inhibition of collagen-induced aggregation in PRP ([2]; compounds 300 μM, physostigmine (eserine) 10 μM): did not exert significant effects
- inhibition of ADP (10 μM) induced aggregation in PRP, comparison in words [3]: consistently less inhibition of aggregation than ST0701/02
- effect of ODQ pretreatment on inhibition of ADP induced aggregation [3]: increased the inhibition
- inhibition of TCIPA induced by HT1080 [4]: did not exert any significant effect
- inhibition of TCIPA induced by HT1080 ([4]; listed as aspirin): did not exert a significant effect
- 59M-mediated increase in platelet surface P-selectin [5]: failed to prevent

SMILES: CC(=O)Oc1ccccc1C(=O)O[C@H]1CO[C@H]2[C@@H]1OC[C@H]2OC(=O)c1cccnc1 [ST0702, isosorbide-2-aspirinate-5-nicotinate]
- IC50 ([1]; Homo sapiens, Platelet): 154 µM
- effect of ST0702 on collagen-induced aggregation in WP after PMSF pretreatment ([1]; PMSF 50 μM, 20 μM, not significant): slightly attenuated
- effect of ST0702 on collagen-induced aggregation in WP after PMSF pretreatment ([1]; PMSF 100 μM, ST0702 200 μM (200-300 μM elsewhere in the source), collagen 2 μg/ml): significantly attenuated; also recorded: abolished
- effect of eserine on inhibition of collagen-induced aggregation in WP [1]: not abolished
- inhibition of aggregation following 0-5 min preincubation [2, 6]: No significant inhibition
- preincubation time at which inhibition is maximal [2, 6]: 15 to 20 min
- inhibition of ADP (10 μM) induced aggregation in PRP, comparison in words [3]: more efficacious than aspirin
- effect of ODQ pretreatment on inhibition of ADP induced aggregation [3]: increased the inhibition
- inhibition of TCIPA induced by HT1080 [4]: consistently inhibited TCIPA
- 59M-mediated increase in platelet surface P-selectin [5]: significantly (P<0.01, n=4) inhibited

From patent US9670223B2, “Compounds with super-aspirin effects” (SOLVOTRIN THERAPEUTICS LTD., priority 2011, dated 2017)
